Results taken from patent US8022203B2, “Amino derivatives of beta-homoandrostanes and beta-heteroandrostanes” (Sigma-Tau Industrie Farmaceutiche Riunite S.p.A., priority 2006, dated 2011).
Structures can show the parent of a compound that is named as a salt.

Molecular target: Na^+,K^+-ATPase (Canis lupus familiaris, UniProt P50997)
Assay: Dog kidney Na+,K+-ATPase inhibition (hydrolysis of 32P-ATP)
Type: biochemical
Settings: Na^+,K^+-ATPase Inhibition IC50

| Compound | IC50 [µM] |
| --- | --- |
| CC12CCC3C(CC(=O)NC4CC(=NOC5CCNC5)CCC43C)C1CCC2=O [I-ad, (E,Z) 3-[3-(R)-Pyrrolidinyl]oxyimino-6-aza-7a-homoandrostane-7,17-dione fumarate] | 0.95 |
| CC12CCC3C(CCNC4CC(=NOC5CCNC5)CCC43C)C1CCC2=O [I-am, (E,Z) 3-[3-(R)-Pyrrolidinyl]oxyimino-6-aza-7a-homoandrostane-17-one dihydrochloride] | 9.5 |
| CON=C1CC2C3CCC(=O)C3(C)CCC2C2(C)CCC(=NOC3CCNC3)CC2N1 [I-au, 3-(E,Z)-[3-(R)-Pyrrolidinyl]oxyimino-6-aza-7a-homo-7-(Z)-methoxyimino-androstane-17-one hydrochloride] | 68 |
| CC12CCC3C(NC(=O)CC4CC(=NOC5CCNC5)CCC43C)C1CCC2=O [I-ax, (E,Z) 3-[3-(R)-Pyrrolidinyl]oxyimino-7a-aza-7a-homoandrostane-7,17-dione hydrochloride] | 4.8 |
| CC12CCC3C(COC(=O)C4CC(=NOCCN)CCC43C)C1CCC2=O (stereo not drawn) [I-be, (E,Z) 3-(2-Aminoethoxyimino)-7-oxa-7a-homoandrostane-6,17-dione hydrochloride] | 1.6 |
| CNCCCON=C1CCC2(C)C(C1)C(=O)OCC1C3CCC(=O)C3(C)CCC12 (stereo not drawn) [I-bf, (E,Z)-3-(3-N-Methylaminopropoxyimino)-7-oxa-7a-homoandrostane-6,17-dione hydrochloride] | 1.9 |
| CC12CCC3C(COC(=O)C4CC(=NOC5CCNC5)CCC43C)C1CCC2=O [I-bg, (E,Z) 3-[3-(R)-Pyrrolidinyl]oxyimino-7-oxa-7a-homoandrostane-6,17-dione hydrochloride] | 0.81 |
| CNCCCON=C1CCC2(C)C(CC(=O)OC3C4CCC(=O)C4(C)CCC32)C1 (stereo not drawn) [I-bj, (E,Z) 3-(3-N-Methylaminopropoxyimino)-7a-oxa-7a-homoandrostane-7,17-dione hydrochloride] | 2.2 |
| CC12CCC3C(CC(=O)NC4CC(=NOCCN)CCC43C)C1CCC2=O (stereo not drawn) [I-bm, (E) 3-(2-Aminoethoxyimino)-6-aza-7a-homoandrostane-7,17-dione fumarate] | 25 |
| CC12CCC3C(CC(=O)NC4CC(=NOCCN)CCC43C)C1CCC2=O (stereo not drawn) [I-bn, (Z) 3-(2-Aminoethoxyimino)-6-aza-7a-homoandrostane-7,17-dione fumarate] | 61 |
| CC12CCC3C(CCCC4CC(=NOCCN)CCC43C)C1CCC2=O (stereo not drawn) [I-bo, (E,Z) 3-(2-Aminoethoxyimino)-B-homoandrostane-17-one hydrochloride] | 0.071 |
| CC12CCC3C(CCCC4CC(=NOC5CCNC5)CCC43C)C1CCC2=O [I-bp, (E,Z)-3-[3-(R)-Pyrrolidinyl]oxyimino-B-homoandrostane-17-one hydrochloride] | 0.04 |
| CNCCCON=C1CCC2(C)C(C1)OC(=O)CC1C3CCC(=O)C3(C)CCC12 (stereo not drawn) [I-bq, (E,Z)-3-(3-N-Methylaminopropoxyimino)-6-oxa-7a-homoandrostane-7,17-dione fumarate] | 3.7 |
| CC12CCC3C(CC(=O)OC4CC(=NOC5CCNC5)CCC43C)C1CCC2=O [I-br, (E,Z) 3-[3-(R)-Pyrrolidinyl]oxyimino-6-oxa-7a-homoandrostane-7,17-dione fumarate] | 1.3 |
| CC12CCC3C(C(=O)NC4CC(=NOC5CCNC5)CCC43C)C1CCC2=O [I-bv, (E,Z) 3-[3-(R)-Pyrrolidinyl]oxyimino-6-azaandrostane-7,17-dione fumarate] | 1.4 |

Same assay, conditions: dog kidney enzyme; read-out: Na^+,K^+-ATPase Inhibition IC50

| Compound | IC50 [µM] |
| --- | --- |
| CC12CCC3C(CC(=S)NC4CC(=NOCCN)CCC43C)C1CCC2=O (stereo not drawn) [I-aj, (E,Z) 3-(2-Aminoethoxyimino)-6-aza-7a-homo-7-thioxoandrostane-17-one hydrochloride] | 6.5 |
| CC12CCC3C(CCNC4CC(=NOCCN)CCC43C)C1CCC2=O (stereo not drawn) [I-ak, (E,Z)—3-(2-Aminoethoxyimino)-6-aza-7a-homoandrostane-17-one dihydrochloride] | 29 |
| CC12CCC3C(CCN(C=O)C4CC(=NOCCN)CCC34C)C1CCC2=O (stereo not drawn) [I-an, (E,Z) 3-(2-Aminoethoxyimino)-6-aza-6-formyl-7a-homoandrostane-17-one hydrochloride] | 23 |
| CON=C1CC2C3CCC(=O)C3(C)CCC2C2(C)CCC(=NOCCN)CC2N1 (stereo not drawn) [I-at, (E,Z) 3-(2-Aminoethoxyimino)-6-aza-7a-homo-7-(Z)-methoxyimino-androstane-17-one hydrochloride] | 48 |
| CC12CCC3C(NC(=O)CC4CC(=NOCCN)CCC43C)C1CCC2=O (stereo not drawn) [I-av, (E,Z) 3-(2-Aminoethoxyimino)-7a-aza-7a-homoandrostane-7,17-dione hydrochloride] | 27 |
| CNCCCON=C1CCC2(C)C(CC(=O)NC3C4CCC(=O)C4(C)CCC32)C1 (stereo not drawn) [I-aw, (E,Z) 3-(3-N-Methylaminopropoxyimino)-7a-aza-7a-homoandrostane-7,17-dione hydrochloride] | 9.9 |
| CC12CCC3C(NCCC4CC(=NOCCN)CCC43C)C1CCC2=O (stereo not drawn) [I-ay, (E,Z) 3-(2-Aminoethoxyimino)-7a-aza-7a-homoandrostane-17-one difumarate] | 0.4 |
| CNCCCON=C1CCC2(C)C(CCNC3C4CCC(=O)C4(C)CCC32)C1 (stereo not drawn) [I-az, (E,Z) 3-(3-N-Methylaminopropoxyimino)-7a-aza-7a-homoandrostane-17-one difumarate] | 1.8 |
| CC12CCC3C(C1CCC2=O)N(C=O)CCC1CC(=NOC2CCNC2)CCC13C [I-bd, (E,Z) 3-[3-(R)-Pyrrolidinyl]oxyimino-7a-aza-7a-formyl-7a-homoandrostane-17-one hydrochloride] | 57 |
| CC12CCC3C(CC(=O)OC4CC(=NOCCN)CCC43C)C1CCC2=O (stereo not drawn) [I-bh, (E,Z) 3-(2-Aminoethoxyimino)-6-oxa-7a-homoandrostane-7,17-dione fumarate] | 0.24 |
| CC12CCC3C(OC(=O)CC4CC(=NOCCN)CCC43C)C1CCC2=O (stereo not drawn) [I-bi, (E,Z) 3-(2-Aminoethoxyimino)-7a-oxa-7a-homoandrostane-7,17-dione hydrochloride] | 0.85 |
| CC12CCC3C(C(=O)OC4CC(=NOCCN)CCC43C)C1CCC2=O (stereo not drawn) [I-bl, (E,Z) 3-(2-Aminoethoxyimino)-6-oxa-5β-androstane-7,17-dione hydrochloride] | 2.5 |
| CC12CCC3C(CCOC4CC(=NOCCN)CCC43C)C1CCC2=O (stereo not drawn) [I-bs, (E,Z)-3-(2-Aminoethoxyimino)-6-oxa-7a-homoandrostane-17-one hydrochloride] | 0.13 |
| CC12CCC3C(OCCC4CC(=NOCCN)CCC43C)C1CCC2=O (stereo not drawn) [I-bt, (E,Z)-3-(2-Aminoethoxyimino)-7a-oxa-7a-homoandrostane-17-one hydrochloride] | 0.16 |
| CC12CCC3C(C(=O)NC4CC(=NOCCN)CCC43C)C1CCC2=O (stereo not drawn) [I-bu, (E,Z) 3-(2-Aminoethoxyimino)-6-azaandrostane-7,17-dione hydrochloride] | 1.1 |
